Measured values published in patent US20170190705A1, “Compositions and Methods for Inhibiting BMP” (THE BRIGHAM AND WOMAN'S HOSPITAL, INC., priority 2014, published 2017).
pIC50: −log10 of the molar value.

Key:
RSK2 = RSK2 (Homo sapiens, UniProt P51812); test: Kinome profiling RSK2; assay type: biochemical; conditions: read-out: Inhibitory activity RSK2; for inhibition at 0.1 µM: 100 nM
Procedure: (§1) . The kinome-wide selectivity was determined following the methods previously reported by Mohedas et al., ACS Chem Biol 2013, 8, 1291-1302 and Sanvitale et al., PLoS One 2013, 8, e62721.

ALK5 = molecular target: T1, ALK5 (Homo sapiens, UniProt P36897); test: Thermal shift kinase assay ALK5; assay type: binding; conditions: for ΔTm at 10 µM: 10 μM inhibitor; for ΔT ALK5: Table 6
T1 construct: made in house
T1 sequence (P36897 34-503): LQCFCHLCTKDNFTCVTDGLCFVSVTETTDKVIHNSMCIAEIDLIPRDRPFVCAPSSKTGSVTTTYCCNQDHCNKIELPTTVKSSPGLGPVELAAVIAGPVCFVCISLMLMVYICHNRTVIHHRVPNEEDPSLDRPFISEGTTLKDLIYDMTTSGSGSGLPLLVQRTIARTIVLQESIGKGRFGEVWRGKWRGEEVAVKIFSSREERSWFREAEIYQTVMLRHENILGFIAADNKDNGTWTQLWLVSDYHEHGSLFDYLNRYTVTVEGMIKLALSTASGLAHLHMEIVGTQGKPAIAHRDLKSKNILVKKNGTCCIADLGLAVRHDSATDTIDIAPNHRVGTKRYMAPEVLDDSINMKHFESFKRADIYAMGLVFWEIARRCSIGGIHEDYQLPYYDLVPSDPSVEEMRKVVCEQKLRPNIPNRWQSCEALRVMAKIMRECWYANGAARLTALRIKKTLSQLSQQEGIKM
Procedure: Thermal melting experiments were performed using a Real Time PCR machine Mx3005p (Stratagene) with a protein concentration of 1-2 μM and 10 μM inhibitor as described by Niesen et al., Nat Protoc 2007, 2, 2212-21. Recombinant human kinases for DSF screening were prepared by SGC using the published methods of Sanvitale et al., PLoS One 2013, 8, e62721. The potency and selectivity of certain compounds of the invention based on thermal shift kinase and ligand induced transcriptional activity assays are shown in Table 2.

P38α = P38α (Homo sapiens, UniProt Q16539); test: Kinome profiling P38α; assay type: biochemical; conditions: read-out: Inhibitory activity P38α; for inhibition at 0.1 µM: 100 nM
Procedure: as §1

LRRK2-G2019S = LRRK2-G2019S (Homo sapiens, UniProt Q5S007, G2019S); test: Kinome profiling LRRK2-G2019S; assay type: biochemical; conditions: read-out: Inhibitory activity LRRK2-G2019S; for inhibition at 0.1 µM: 100 nM
LRRK2-G2019S, sequence (Q5S007 whole entry G2019S): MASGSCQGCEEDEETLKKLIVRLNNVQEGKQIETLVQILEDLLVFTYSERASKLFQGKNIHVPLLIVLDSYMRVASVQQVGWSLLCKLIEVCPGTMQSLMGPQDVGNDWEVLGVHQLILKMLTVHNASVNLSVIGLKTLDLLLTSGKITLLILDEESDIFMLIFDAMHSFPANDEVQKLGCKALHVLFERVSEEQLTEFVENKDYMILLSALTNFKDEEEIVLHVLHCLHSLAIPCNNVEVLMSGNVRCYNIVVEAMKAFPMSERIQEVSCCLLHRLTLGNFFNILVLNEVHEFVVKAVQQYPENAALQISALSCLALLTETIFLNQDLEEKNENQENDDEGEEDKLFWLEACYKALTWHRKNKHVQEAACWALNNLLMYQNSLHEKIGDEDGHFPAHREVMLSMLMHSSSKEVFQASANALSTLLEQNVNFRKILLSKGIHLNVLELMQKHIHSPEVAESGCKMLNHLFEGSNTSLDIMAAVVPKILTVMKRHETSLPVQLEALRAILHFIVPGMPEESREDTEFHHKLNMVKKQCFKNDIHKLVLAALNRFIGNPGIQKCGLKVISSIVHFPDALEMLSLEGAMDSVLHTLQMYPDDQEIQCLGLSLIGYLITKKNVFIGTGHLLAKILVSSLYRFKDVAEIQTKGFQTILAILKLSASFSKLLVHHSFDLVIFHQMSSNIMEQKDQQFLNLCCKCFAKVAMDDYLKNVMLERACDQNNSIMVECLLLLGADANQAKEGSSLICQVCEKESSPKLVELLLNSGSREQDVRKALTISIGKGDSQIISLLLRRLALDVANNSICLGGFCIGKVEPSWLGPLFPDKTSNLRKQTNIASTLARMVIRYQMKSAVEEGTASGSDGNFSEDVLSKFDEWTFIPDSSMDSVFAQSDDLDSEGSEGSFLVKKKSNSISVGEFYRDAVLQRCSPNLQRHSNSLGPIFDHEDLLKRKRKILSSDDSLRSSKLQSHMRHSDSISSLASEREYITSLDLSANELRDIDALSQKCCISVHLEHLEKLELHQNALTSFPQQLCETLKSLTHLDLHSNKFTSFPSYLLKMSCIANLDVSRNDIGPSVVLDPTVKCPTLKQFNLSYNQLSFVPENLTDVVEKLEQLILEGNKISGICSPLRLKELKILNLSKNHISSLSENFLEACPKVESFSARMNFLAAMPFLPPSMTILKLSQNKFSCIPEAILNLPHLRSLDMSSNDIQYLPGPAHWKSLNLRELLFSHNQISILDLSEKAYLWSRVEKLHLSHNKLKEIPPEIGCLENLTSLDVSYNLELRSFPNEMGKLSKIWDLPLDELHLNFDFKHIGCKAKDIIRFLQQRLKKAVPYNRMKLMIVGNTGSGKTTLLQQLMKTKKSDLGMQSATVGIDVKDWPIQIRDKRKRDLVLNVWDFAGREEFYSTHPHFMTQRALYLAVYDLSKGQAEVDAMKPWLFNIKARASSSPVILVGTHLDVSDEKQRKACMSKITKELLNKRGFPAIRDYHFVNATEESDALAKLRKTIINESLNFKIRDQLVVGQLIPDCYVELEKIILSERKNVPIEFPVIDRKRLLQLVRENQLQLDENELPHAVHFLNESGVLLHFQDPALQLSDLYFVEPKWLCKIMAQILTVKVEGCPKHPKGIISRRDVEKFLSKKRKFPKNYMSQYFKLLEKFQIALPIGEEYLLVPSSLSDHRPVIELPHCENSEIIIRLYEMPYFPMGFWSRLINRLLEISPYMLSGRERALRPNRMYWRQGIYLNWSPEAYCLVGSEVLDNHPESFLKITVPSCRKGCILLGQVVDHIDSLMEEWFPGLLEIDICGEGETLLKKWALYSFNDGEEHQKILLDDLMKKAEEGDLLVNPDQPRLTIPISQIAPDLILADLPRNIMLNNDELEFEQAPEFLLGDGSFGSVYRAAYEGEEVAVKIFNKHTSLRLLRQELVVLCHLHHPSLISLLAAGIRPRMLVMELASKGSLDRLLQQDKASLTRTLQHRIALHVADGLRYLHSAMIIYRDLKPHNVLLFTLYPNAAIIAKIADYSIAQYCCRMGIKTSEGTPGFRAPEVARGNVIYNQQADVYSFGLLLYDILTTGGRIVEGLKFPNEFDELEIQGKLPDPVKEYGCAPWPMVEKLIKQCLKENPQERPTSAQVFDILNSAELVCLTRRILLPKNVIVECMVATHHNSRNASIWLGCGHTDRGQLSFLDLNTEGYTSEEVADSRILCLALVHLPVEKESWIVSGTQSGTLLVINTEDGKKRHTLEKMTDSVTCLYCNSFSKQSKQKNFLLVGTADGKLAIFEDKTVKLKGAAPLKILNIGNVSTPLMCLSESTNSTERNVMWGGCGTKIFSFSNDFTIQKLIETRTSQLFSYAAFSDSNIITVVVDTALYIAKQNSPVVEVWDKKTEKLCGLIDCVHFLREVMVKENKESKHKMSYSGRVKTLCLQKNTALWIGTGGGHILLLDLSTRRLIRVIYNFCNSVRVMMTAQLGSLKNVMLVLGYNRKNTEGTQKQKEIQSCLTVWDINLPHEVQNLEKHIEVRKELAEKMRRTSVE
Procedure: as §1

NEK2 = molecular target: T2, NEK2 (Homo sapiens, UniProt P51955); test: Kinome profiling NEK2; assay type: biochemical; conditions: read-out: Inhibitory activity NEK2; for inhibition at 0.1 µM: 100 nM
T2 sequence (P51955 1-445): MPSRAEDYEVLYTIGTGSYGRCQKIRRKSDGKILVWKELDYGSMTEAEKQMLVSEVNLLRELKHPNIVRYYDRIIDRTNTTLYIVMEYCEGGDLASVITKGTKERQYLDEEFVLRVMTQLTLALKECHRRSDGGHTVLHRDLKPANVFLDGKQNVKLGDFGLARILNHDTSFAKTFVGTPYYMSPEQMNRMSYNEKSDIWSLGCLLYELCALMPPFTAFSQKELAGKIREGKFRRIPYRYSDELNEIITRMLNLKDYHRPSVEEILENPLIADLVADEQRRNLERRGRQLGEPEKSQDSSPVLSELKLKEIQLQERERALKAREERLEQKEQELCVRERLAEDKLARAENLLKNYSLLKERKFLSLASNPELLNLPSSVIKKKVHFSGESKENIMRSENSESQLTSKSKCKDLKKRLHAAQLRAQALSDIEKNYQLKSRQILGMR
Procedure: as §1

caALK3 = molecular target: T3, caALK3 (Homo sapiens, UniProt P36894, Q233D); test: Luciferase reporter assay constitutively active ALK3; conditions: read-out: Cell Based Assay caALK3 IC50
T3 construct: expressed in transfected cells; host or cells: C2C12 BRE-Luc cells infected with adenovirus (MOI 100)
Text: C2Cl2 […] cells stably transfected with BMP responsive element from the Id promoter fused to luciferase reporter gene (BRE-Luc) were generously provided by Dr. Peter ten Dijke (Leiden University Medical Center, NL) following the methods described by Zilberberg et al., BMC cell biology 2007, 8, 41-50. Human embryonic kidney 293T cells stably transfected with the TGF-β responsive element from the PAI-1 promoter fused to luciferase reporter gene (CAGA-Luc) were generously provided by Dr. Howard Weiner (Brigham and Women's Hospital, Boston, Mass.) following the methods described by Oida et al., PloS one 2011, 6, e18365. C2Cl2 Bre-Luc and 293T CAGA-Luc cells were seeded in DMEM supplemented with 2% FBS at 20,000 cells per well in tissue culture treated 96-well plates (Costar® 3610; Corning). The cells were incubated for 1 h (37° C. and 10% CO2) and allowed to settle and attach. Compounds of interest or DMSO were diluted in DMEM and added at final compound concentrations of 1 nM to 10 μM. Cells were then incubated for 30 min. Adenovirus expressing constitutively active BMP and TGF-β type I receptors (Ad.caALK1-5), generously provided by Dr. Akiko Hata (University of to California at San Francisco), were added to achieve a multiplicity of infection (MOI) of 100. Plates were incubated overnight at 37° C. Cell viability was assayed with an MIT (3-(4,5-dimethylthiazol-2-yl)-2,5-diphenyl tetrazolium bromide) colorimetric assay (Promega) per the manufacturer's instructions. Media was discarded, and firefly luciferase activity was measured (Promega) according to manufacturer's protocol. Light output was measured using a Spectramax L luminometer (Molecular Devices) with an integration time of one second per well. Data was normalized to 100% of incremental BRE-Luc activity due to adenoviruses specifying caALK1, 2, or 3, or the incremental CAGA-Luc activity due to adenoviruses specifying caALK4 or 5.

P38β = P38β (Homo sapiens, UniProt Q15759); test: Kinome profiling P38β; assay type: biochemical; conditions: read-out: Inhibitory activity P38β; for inhibition at 0.1 µM: 100 nM
Procedure: as §1

PIM3 = PIM3 (Homo sapiens, UniProt Q86V86); test: Kinome profiling PIM3; assay type: biochemical; conditions: read-out: Inhibitory activity PIM3; for inhibition at 0.1 µM: 100 nM
Procedure: as §1

EPH-A2 = EPH-A2 (Homo sapiens, UniProt P29317); test: Kinome profiling EPH-A2; assay type: biochemical; conditions: read-out: Inhibitory activity EPH-A2; for inhibition at 0.1 µM: 100 nM
EPH-A2, sequence (P29317 24-976): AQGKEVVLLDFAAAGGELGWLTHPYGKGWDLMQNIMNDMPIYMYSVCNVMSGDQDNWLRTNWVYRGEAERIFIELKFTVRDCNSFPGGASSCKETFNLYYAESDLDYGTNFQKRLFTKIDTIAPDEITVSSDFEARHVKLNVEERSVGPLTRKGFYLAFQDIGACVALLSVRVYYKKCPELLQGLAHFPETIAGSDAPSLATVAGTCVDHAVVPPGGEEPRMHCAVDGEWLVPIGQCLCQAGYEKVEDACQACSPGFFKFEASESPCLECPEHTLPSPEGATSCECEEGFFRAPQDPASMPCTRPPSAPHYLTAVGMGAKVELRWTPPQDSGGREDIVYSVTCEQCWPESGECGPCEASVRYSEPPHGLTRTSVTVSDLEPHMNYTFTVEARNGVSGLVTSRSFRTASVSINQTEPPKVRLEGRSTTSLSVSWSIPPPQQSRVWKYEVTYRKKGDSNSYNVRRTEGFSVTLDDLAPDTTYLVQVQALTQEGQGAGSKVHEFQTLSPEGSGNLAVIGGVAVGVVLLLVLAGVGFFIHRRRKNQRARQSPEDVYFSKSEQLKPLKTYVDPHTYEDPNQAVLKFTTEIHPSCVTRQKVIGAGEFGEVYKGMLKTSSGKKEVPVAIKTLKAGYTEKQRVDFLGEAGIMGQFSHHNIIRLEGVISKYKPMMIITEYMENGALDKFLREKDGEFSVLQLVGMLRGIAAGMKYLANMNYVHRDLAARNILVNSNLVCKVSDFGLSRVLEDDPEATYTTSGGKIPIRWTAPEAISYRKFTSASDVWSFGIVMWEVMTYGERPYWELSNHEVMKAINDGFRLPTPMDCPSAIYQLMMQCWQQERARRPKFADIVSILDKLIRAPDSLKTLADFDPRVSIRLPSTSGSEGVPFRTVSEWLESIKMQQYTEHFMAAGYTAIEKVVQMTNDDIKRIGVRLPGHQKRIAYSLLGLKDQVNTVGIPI
Procedure: as §1

LYNA = LYNA (Homo sapiens, UniProt P07948); test: Kinome profiling LYNA; assay type: biochemical; conditions: read-out: Inhibitory activity LYNA; for inhibition at 0.1 µM: 100 nM
LYNA, sequence (P07948 whole entry): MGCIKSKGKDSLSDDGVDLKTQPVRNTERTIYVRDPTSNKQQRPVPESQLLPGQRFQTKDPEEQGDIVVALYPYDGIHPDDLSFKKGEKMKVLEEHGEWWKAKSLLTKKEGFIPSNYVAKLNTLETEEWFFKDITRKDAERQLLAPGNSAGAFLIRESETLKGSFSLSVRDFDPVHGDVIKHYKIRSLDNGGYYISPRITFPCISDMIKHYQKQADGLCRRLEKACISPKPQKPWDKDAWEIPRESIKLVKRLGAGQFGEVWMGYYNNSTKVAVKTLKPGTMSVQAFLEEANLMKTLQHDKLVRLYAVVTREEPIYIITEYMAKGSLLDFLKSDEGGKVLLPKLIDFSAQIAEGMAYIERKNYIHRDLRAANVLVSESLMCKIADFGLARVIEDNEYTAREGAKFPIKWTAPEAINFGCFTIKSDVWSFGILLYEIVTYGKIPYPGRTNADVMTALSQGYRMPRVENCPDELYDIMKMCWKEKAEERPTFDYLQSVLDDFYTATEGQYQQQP
Procedure: as §1

RSK2, sequence (P51812 whole entry): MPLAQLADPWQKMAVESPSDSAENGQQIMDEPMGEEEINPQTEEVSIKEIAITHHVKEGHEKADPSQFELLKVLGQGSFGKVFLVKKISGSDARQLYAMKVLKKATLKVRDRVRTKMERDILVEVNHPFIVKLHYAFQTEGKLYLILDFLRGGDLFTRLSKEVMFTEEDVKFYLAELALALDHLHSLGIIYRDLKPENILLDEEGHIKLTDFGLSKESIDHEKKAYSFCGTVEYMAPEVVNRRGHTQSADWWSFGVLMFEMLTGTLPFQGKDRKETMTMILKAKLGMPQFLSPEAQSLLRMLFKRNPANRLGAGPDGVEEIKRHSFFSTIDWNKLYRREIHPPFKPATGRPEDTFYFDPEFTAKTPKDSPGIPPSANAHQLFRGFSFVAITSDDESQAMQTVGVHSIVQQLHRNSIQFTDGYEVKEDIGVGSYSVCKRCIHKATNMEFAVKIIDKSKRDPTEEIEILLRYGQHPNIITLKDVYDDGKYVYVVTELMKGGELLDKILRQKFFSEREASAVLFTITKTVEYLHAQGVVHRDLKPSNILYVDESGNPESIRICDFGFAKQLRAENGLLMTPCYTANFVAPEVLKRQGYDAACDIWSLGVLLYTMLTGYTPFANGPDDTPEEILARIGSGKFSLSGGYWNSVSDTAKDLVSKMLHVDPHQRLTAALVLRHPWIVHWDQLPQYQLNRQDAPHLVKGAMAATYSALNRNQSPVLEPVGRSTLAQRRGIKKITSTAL

Work on COc1cc(-c2cc(-c3ccc(N4CCNCC4)cc3)cnc2C)cc(OC)c1OC [Compound 10, 1-(4-(6-methyl-5-(3,4,5-trimethoxyphenyl)pyridin-3-yl)phenyl)piperazine] yielded an inhibition at 0.1 µM (RSK2) of 1%, an inhibition at 1 µM (RSK2) of 1% and a ΔTm at 10 µM (ALK5) of 9.7 °C. For the same compound, the “ΔT ALK5” value (ALK5) was 9.7 °C, the inhibition at 0.1 µM (P38α) was -2% and the inhibition at 1 µM (P38α) was 1%. It also gave an inhibition at 0.1 µM (LRRK2-G2019S) of 4%, an inhibition at 1 µM (LRRK2-G2019S) of 11% and an inhibition at 0.1 µM (NEK2) of 3%. The inhibition at 1 µM (NEK2) was 2%, the pIC50 (caALK3) was 6.42 and the inhibition at 0.1 µM (P38β) was 1%. It also gave an inhibition at 1 µM (P38β) of 11%, an inhibition at 0.1 µM (PIM3) of 3% and an inhibition at 1 µM (PIM3) of 4%. It also gave an inhibition at 0.1 µM (EPH-A2) of -2%, an inhibition at 1 µM (EPH-A2) of 1% and an inhibition at 0.1 µM (LYNA) of 3%. For the same compound, the inhibition at 1 µM (LYNA) was 29%.

COc1cc(-c2cc(-c3ccc(N4CCNCC4)cc3)cnc2N)cc(OC)c1OC [Compound 15, 5-(4-(piperazin-1-yl)phenyl)-3-(3,4,5-trimethoxyphenyl)pyridin-2-amine] gave an inhibition at 0.1 µM (RSK2) of 0%, an inhibition at 1 µM (RSK2) of 4% and a ΔTm at 10 µM (ALK5) of 13.9 °C. For the same compound, the “ΔT ALK5” value (ALK5) was 13.9 °C, the inhibition at 0.1 µM (P38α) was 4% and the inhibition at 1 µM (P38α) was 9%. For the same compound, the inhibition at 0.1 µM (LRRK2-G2019S) was 16%, the inhibition at 1 µM (LRRK2-G2019S) was 57% and the inhibition at 0.1 µM (NEK2) was 4%. For the same compound, the inhibition at 1 µM (NEK2) was 2%, the pIC50 (caALK3) was 8.10 and the inhibition at 0.1 µM (P38β) was 10%. It also gave an inhibition at 1 µM (P38β) of 44%, an inhibition at 0.1 µM (PIM3) of 1% and an inhibition at 1 µM (PIM3) of -1%. The inhibition at 0.1 µM (EPH-A2) was -3%, the inhibition at 1 µM (EPH-A2) was 4% and the inhibition at 0.1 µM (LYNA) was 41%. For the same compound, the inhibition at 1 µM (LYNA) was 84%.
